Test results reported in US7081447B2, “Organic compounds with biological activity as thrombin inhibitors and use thereof” (Novel Science International GmbH, priority 2001, dated 2006).

Experiments:
[1] = biological target: T1, thrombin (Homo sapiens, UniProt P00734); details: cited from earlier work
[2] = biological target: T1, thrombin; assay: in vitro inhibition of thrombin amidase activity (fluorogenic substrate Tos-Gly-Pro-Arg-(7-amino-4-methylcoumarin)); type: biochemical; design: with 10 μL of human thrombin solution
Experimental: (§1) The values of the inhibition constant Ki were obtained from assays, in which thrombin hydrolyzes the fluorogenic substrate Tos-Gly-Pro-Arg-(7-amino-4-methylcoumarin). The assays were performed in 30 μL of assay buffer (0.05 M Tris, 0.1 M NaCl, 0.1% PEG 8000, pH 7.6) with 10 μL of human thrombin solution (10^−5 U/μL in assay buffer) and 140 μL of a solution of the fluorogenic substrate in assay buffer at a concentration v of 30 μM. Solutions of the test compound (10 μL) were added at various concentrations. The rates of substrate hydrolysis were measured by monitoring the reactions of 7-amino-4-methylcoumarin release at 460 nm with use of AMC. The reaction reached a steady state within 3 minutes after thrombin was combined with the substrate and an inhibitor. The kinetic data of the competitive inhibition (Km, Vmax, and Ki) were analyzed with the aid of the Hanes plot (A/V vs. A at various i values).
as §1, with “concentration” for “concentration v”, “using” for “with the aid of”, “values for A; here, A is the substrate concentration and V the reaction rate).” for “i values).”
as §1, with “conducted” for “performed”, “concentration” for “concentration v”, “using” for “with the aid of”, “values for A; here, A is the substrate concentration and V the reaction rate).” for “i values).”

[3] = peptide concentration of 1 μM, 1 µM
[4] = peptide concentration of 250 nM

| Substance | Thrombin inhibition (thrombin amidase activity) [2, 3] [%] | other results |
| --- | --- | --- |
| H-D-Phe-Pro-Arg-H |  | Ki [1]: 70 nM |
| N-Acetyl-L-Ser-L-Ala-L-Cha-D-Pro-D-Tyr-L-Arg amide [Example 67] | 47 |  |
| N-Acetyl-L-Ser-L-Arg-L-Cha-D-Pro-D-Tyr-L-Arg amide [Example 18] | 67 |  |
| N-Acetyl-L-Ser-L-Arg-L-Cha-D-Pro-D-Tyr-L-Arg amide [Example 35] | 51 |  |
| N-Acetyl-L-Ser-L-Arg-L-Cha-D-Pro-D-Tyr-L-Arg amide [Example 50] | 51 |  |
| N-Acetyl-L-Ser-L-Arg-L-Cha-D-Pro-D-Tyr-L-Arg amide [Example 68] | 51 |  |
| N-Acetyl-L-Ser-L-Cha-D-Pro-D-Tyr-L-Arg amide [Example 22] |  | Thrombin inhibition (thrombin amidase activity) ([2]; peptide concentration of 1 μM): 31% |
| N-Acetyl-L-Ser-L-Cha-L-Cha-D-Pro-D-Tyr-L-Arg amide [Example 19] |  | Thrombin inhibition (thrombin amidase activity) ([2]; peptide concentration of 1 μM): 43% |
| N-Acetyl-L-Ser-L-Ser-L-Cha-D-Pro-D-Tyr-L-Arg amide [Example 13] | 49 |  |
| N-Acetyl-L-Ser-L-Ser-L-Cha-D-Pro-D-Tyr-L-Arg amide [Example 31] | 40 |  |
| N-Acetyl-L-Ser-L-Ser-L-Cha-D-Pro-D-Tyr-L-Arg amide [Example 46] | 40 |  |
| N-Acetyl-L-Ser-L-Ser-L-Cha-D-Pro-D-Tyr-L-Arg amide [Example 64] | 40 |  |
| N-Acetyl-L-Tea-D-Cha-L-Aze-D-Tyr-L-Har amide [Example 82] |  | Thrombin inhibition (thrombin amidase activity) [2, 4]: 74% |
| N-Acetyl-L-Trp-D-Cha-L-Aze-D-Tyr-L-Har amide [Example 75] |  | Thrombin inhibition (thrombin amidase activity) [2, 4]: 76% |
| N-Acetyl-L-Trp-L-Cha-D-Pro-D-Tyr-L-Arg amide [Example 33] |  | Thrombin inhibition (thrombin amidase activity) ([2]; peptide concentration of 1 μM): 63% |
| N-Acetyl-L-Tyr-D-Pro-L-Cha-D-Pro-D-Tyr-L-Arg amide [Example 39] |  | Thrombin inhibition (thrombin amidase activity) ([2]; peptide concentration of 1 μM): 44% |
| N-Acetyl-L-Tyr-L-Cit-L-Cha-D-Pro-D-Tyr-L-Arg amide [Example 15] | 51 |  |
| N-Acetyl-L-Tyr-L-Cit-L-Cha-D-Pro-D-Tyr-L-Arg amide [Example 30] | 55 |  |
| N-Acetyl-L-Tyr-L-Cit-L-Cha-D-Pro-D-Tyr-L-Arg amide [Example 45] | 55 |  |
| N-Acetyl-L-Tyr-L-Cit-L-Cha-D-Pro-D-Tyr-L-Arg amide [Example 63] | 55 |  |
